Results from publication PMC4604124, “In Vitro Characterization of the Pharmacological Properties of the Anti-Cancer Chelator, Bp4eT, and Its Phase I Metabolites” (PLoS ONE, 2015).
Several values for one entry are separate records, joined by “and”; a condition that tells them apart may be missing. Identical values can stand only once.

Legend:
[1] = Ascorbate oxidation assay (redox activity of iron complexes); type: biochemical;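 on %Fe 30min (ascorbate oxidation, Fe 100%), průměr: IBE 3 means excess free chelator over iron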;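 on %Fe 30min (ascorbate oxidation, Fe 100%): IBE 3 means excess free chelator over iron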;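 on %Fe 30min (ascorbate oxidation, Fe = 100%), průměr (mean): IBE 1 means iron-binding equivalents giving fully coordinated iron-chelator complexes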;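 on %Fe 30min (ascorbate oxidation, Fe = 100%), single replicates: IBE 1 means iron-binding equivalents giving fully coordinated iron-chelator complexes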;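 on %Fe 30min: ascorbate oxidation as % of the Fe control (Fe 100%): IBE 0.1 means iron-binding equivalents with iron in excess over chelator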;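 on Change of absorbance, odečet 0 (time 0 subtracted), čas 10, průměr: IBE 3 means excess free chelator over 10 µM FeCl3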;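 on Change of absorbance, odečet 0 (time 0 subtracted), čas 10: IBE 3 means excess free chelator over 10 µM FeCl3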;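 on Change of absorbance, odečet 0 (time 0 subtracted), čas 20, průměr: 100 µM ascorbate with 10 µM FeCl3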;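 on Change of absorbance, odečet 0 (time 0 subtracted), čas 20: 100 µM ascorbate with 10 µM FeCl3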;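 on Change of absorbance, odečet 0 (time 0 subtracted), čas 30, průměr: 100 µM ascorbate with 10 µM FeCl3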;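 on Change of absorbance, odečet 0 (time 0 subtracted), čas 30: 100 µM ascorbate with 10 µM FeCl3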;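 on odečet 0 (reading minus time 0 reading) at čas 20, single replicates: IBE 1 means fully coordinated iron chelator complexes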;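 on odečet 0 (reading minus time 0 reading) at čas 30, průměr (mean): IBE 1 means fully coordinated iron chelator complexes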;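 on odečet 0 (reading minus time 0 reading) at čas 30, single replicates: IBE 1 means fully coordinated iron chelator complexes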;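 on raw reading at čas 20 (time 20), průměr (mean): IBE 1 means fully coordinated iron chelator complexes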;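 on raw reading at čas 20 (time 20), single replicates: IBE 1 means fully coordinated iron chelator complexes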;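 on raw reading at čas 30 (time 30), průměr (mean): IBE 1 means fully coordinated iron chelator complexes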;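 on raw reading at čas 30 (time 30), single replicates: IBE 1 means fully coordinated iron chelator complexes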
[2] = tested on: HCT116 human colorectal carcinoma cells; test: MTT cytotoxicity assay, HCT116 cells; type: cell-based; conditions: for IC50: MTT
Method: For cytotoxicity experiments, cancer cells were seeded at a density of 5,000 (MCF-7), 10,000 (HL-60) or 2,000 cells/well (HCT116 and A549) in 96-well plates (TPP) for 24 h/37°C prior to the addition of examined agents. The non-cancerous cells, 3T3 and H9c2 cells, were cultured for 24 h/37°C in 96-well plates at a density of 10,000 cells/well, the medium was then changed to serum- and pyruvate-free DMEM (Sigma-Aldrich) and incubated with the cells for another 24 h/37°C. The cytotoxic effects of Bp4eT and its metabolites were studied at different concentrations after a 72 h/37°C incubation. In order to aid the dissolution of the lipophilic ligands, 0.1% dimethyl sulfoxide (v/v) (DMSO; Sigma-Aldrich) was present in the culture medium of all groups. At this concentration, DMSO had no effect on cellular proliferation or viability.
The viability of cells were determined using an MTT assay (Sigma-Aldrich) according to previously established methods. The optical density of soluble MTT was measured at λ = 570 nm, subtracting the λ = 690 nm background using a Tecan Infinite 200M plate reader (Tecan Group, Männedorf, Switzerland). The viability or proliferation of experimental groups was expressed as a percentage of the untreated controls (100%).
SigmaStat for Windows 3.5 (Systat Software, San Jose, CA, USA) statistical software package was utilized to analyze results. The data are expressed as the mean ± SD of a given number of experiments. Statistical significance was determined using a one-way ANOVA with a Bonferroni post-hoc test or Student’s t-test. The results were considered to be statistically significant when p < 0.05. The IC50 values were calculated using CalcuSyn 2.0 software (Biosoft, Cambridge, UK). Cell cycle analysis was evaluated using MultiCycle AV Software (Phoenix Flow Systems, San Diego, CA, USA).

[3] = tested on: labile iron pool of MCF-7 cells; test: Calcein-AM assay, access to the labile iron pool; type: cell-based, human; set-up: Calcein fluorescence: unit not given here; conditions: 10 μM
Summary of the method: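 MCF-7 cells iron-loaded with ferric ammonium citrate (530 μg/mL) for 24 h, then loaded with 2 μM calcein-AM for 30 min at 37°C in ADS buffer, pH 7.4. Calcein fluorescence dequenching (ex 488/em 530 nm) followed for 10 min after adding 10 μM compound; efficacy expressed as percentage of Bp4eT (100%).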

[4] = sheet IBE 1, time 10, replicates
[5] = sheet IBE 1, time 20, replicates
[6] = sheet IBE 1, time 30, replicates

CCNC(=O)NN=C(c1ccccc1)c1ccccn1 [E-Bp4eS, 2-benzoylpyridine 4-ethylsemicarbazone]
%Fe 30min: ascorbate oxidation as % of the Fe control (Fe 100%) ([1]; IBE 0.1, 30 min, mean (průměr)): 110.6% | Change of absorbance after subtraction of time 0 (odečet 0) ([1]; IBE 0.1, time 10, mean (průměr)): -0.03606 | Change of absorbance after subtraction of time 0 (odečet 0) ([1]; IBE 0.1, time 20, mean (průměr)): -0.07143 | Change of absorbance after subtraction of time 0 (odečet 0) ([1]; IBE 0.1, time 30, mean (průměr)): -0.1048 | Absorbance (ascorbate, λ = 265 nm) ([1]; IBE 0.1, čas 0 (time 0), mean (průměr)): 0.8403 | Absorbance (ascorbate, λ = 265 nm) ([1]; IBE 0.1, čas 10 (time 10), mean (průměr)): 0.8042 | Absorbance (ascorbate, λ = 265 nm) ([1]; IBE 0.1, čas 20 (time 20), mean (průměr)): 0.7689 | Absorbance (ascorbate, λ = 265 nm) ([1]; IBE 0.1, čas 30 (time 30), mean (průměr)): 0.7355 | Absorbance (ascorbate, λ = 265 nm) ([1]; IBE 0.1, čas 30 (time 30), single wells): 0.7395 and 0.7451 and 0.7441 and 0.7317 and 0.7361 and 0.735 and 0.7279 and 0.7282 | %Fe 30min (ascorbate oxidation, Fe = 100%), průměr (mean) ([1]; sheet IBE 1, 30min, Fe 100%, mean): 115.7% | %Fe 30min (ascorbate oxidation, Fe = 100%), single replicates ([1]; sheet IBE 1, 30min, Fe 100%, replicates): 118.6% and 122% and 108.4% and 125.1% and 134.4% and 115.2% and 110.6% and 115.1% and 91.71% | raw reading at čas 0 (time 0), průměr (mean) ([1]; sheet IBE 1, time 0, mean of 9 readings): 0.822 | raw reading at čas 0 (time 0), single replicates ([1]; sheet IBE 1, time 0, replicates of 2014-03-24 (two runs) and 2014-03-25): 0.8574 and 0.8322 and 0.8144 and 0.8238 and 0.8106 and 0.8047 and 0.8172 and 0.7979 and 0.8393 | odečet 0 (reading minus time 0 reading) at čas 10, průměr (mean) ([1]; sheet IBE 1, time 10, mean): -0.03765 | raw reading at čas 10 (time 10), průměr (mean) ([1]; sheet IBE 1, time 10, mean of 9 readings): 0.7843 | odečet 0 (reading minus time 0 reading) at čas 10, single replicates [1, 4]: -0.03642 and -0.03472 and -0.03462 and -0.04217 and -0.04047 and -0.03637 and -0.03597 and -0.05027 and -0.02787 | raw reading at čas 10 (time 10), single replicates [1, 4]: 0.778 and 0.7891 and 0.776 and 0.7626 and 0.7768 and 0.7616 and 0.8033 and 0.8071 and 0.8043 | odečet 0 (reading minus time 0 reading) at čas 20, průměr (mean) ([1]; sheet IBE 1, time 20, mean): -0.07141 | raw reading at čas 20 (time 20), průměr (mean) ([1]; sheet IBE 1, time 20, mean of 9 readings): 0.7506 | odečet 0 (reading minus time 0 reading) at čas 20, single replicates [1, 5]: -0.07064 and -0.07124 and -0.06354 and -0.07877 and -0.08537 and -0.07037 and -0.07092 and -0.07622 and -0.05562 | raw reading at čas 20 (time 20), single replicates [1, 5]: 0.7438 and 0.7526 and 0.7471 and 0.726 and 0.7319 and 0.7276 and 0.7684 and 0.7812 and 0.7766 | odečet 0 (reading minus time 0 reading) at čas 30, průměr (mean) ([1]; sheet IBE 1, time 30, mean): -0.1028 | raw reading at čas 30 (time 30), průměr (mean) ([1]; sheet IBE 1, time 30, mean of 9 readings): 0.7192 | odečet 0 (reading minus time 0 reading) at čas 30, single replicates [1, 6]: -0.1024 and -0.1054 and -0.09363 and -0.1081 and -0.1161 and -0.09952 and -0.1043 and -0.1086 and -0.08655 | raw reading at čas 30 (time 30), single replicates [1, 6]: 0.712 and 0.7184 and 0.717 and 0.6966 and 0.7011 and 0.6984 and 0.735 and 0.7488 and 0.7457 | %Fe 30min (ascorbate oxidation, Fe 100%), průměr ([1]; sheet IBE 3, 30min, Fe alone = 100%, mean (průměr) of the 9 replicates): 117.9% | %Fe 30min (ascorbate oxidation, Fe 100%) ([1]; sheet IBE 3, 30min, Fe alone = 100%, single replicates): 124.2% and 115.8% and 108.1% and 126.9% and 132.9% and 126% and 114.7% and 109.6% and 103.1% | Change of absorbance, odečet 0 (time 0 subtracted), čas 10, průměr ([1]; sheet IBE 3, time 10 minus time 0, mean (průměr)): -0.04086 | Change of absorbance, odečet 0 (time 0 subtracted), čas 10 ([1]; sheet IBE 3, time 10 minus time 0, single replicates): -0.04474 and -0.03234 and -0.03864 and -0.04417 and -0.05097 and -0.04457 and -0.03984 and -0.03894 and -0.03354 | Change of absorbance, odečet 0 (time 0 subtracted), čas 20, průměr ([1]; sheet IBE 3, time 20 minus time 0, mean (průměr)): -0.076 | Change of absorbance, odečet 0 (time 0 subtracted), čas 20 ([1]; sheet IBE 3, time 20 minus time 0, single replicates): -0.0807 and -0.0703 and -0.071 and -0.08341 and -0.08461 and -0.08331 and -0.07425 and -0.07045 and -0.06595 | Change of absorbance, odečet 0 (time 0 subtracted), čas 30, průměr ([1]; sheet IBE 3, time 30 minus time 0, mean (průměr)): -0.109 | Change of absorbance, odečet 0 (time 0 subtracted), čas 30 ([1]; sheet IBE 3, time 30 minus time 0, single replicates): -0.1153 and -0.1075 and -0.1003 (2×) and -0.1178 and -0.1233 and -0.1169 and -0.105 and -0.09439 | Therapeutic index, IC50 non-cancerous cells / IC50 neoplastic cells ([2]; 3T3/HCT116): >10.5 | Therapeutic index, IC50 non-cancerous cells / IC50 neoplastic cells ([2]; H9c2/HCT116): 9.3 | IC50 ([2]; HCT116, 72 h/37°C, mean ± SD, n ≥ 4): 95.4 ± 10.4 µM | MTT, relative to control (0 = 100) ([2]; HCT116, 2 000 b/j, 1 μM, průměr (mean), sheet E-Bp4eS): 93.86 | MTT, relative to control (0 = 100) ([2]; HCT116, 2 000 b/j, 1 μM, single experiment (date), sheet E-Bp4eS): 90.5387 and 95.2075 and 90.3432 and 99.3608 | MTT, relative to control (0 = 100) ([2]; HCT116, 2 000 b/j, 3 μM, průměr (mean), sheet E-Bp4eS): 91.05 | MTT, relative to control (0 = 100) ([2]; HCT116, 2 000 b/j, 3 μM, single experiment (date), sheet E-Bp4eS): 88.1499 and 86.4536 and 88.7606 and 100.823 | MTT, relative to control (0 = 100) ([2]; HCT116, 2 000 b/j, 10 μM, průměr (mean), sheet E-Bp4eS): 89.35 | MTT, relative to control (0 = 100) ([2]; HCT116, 2 000 b/j, 10 μM, single experiment (date), sheet E-Bp4eS): 79.5919 and 93.1715 and 88.2723 and 96.3507 | MTT, relative to control (0 = 100) ([2]; HCT116, 2 000 b/j, 30 μM, průměr (mean), sheet E-Bp4eS): 86.47 | MTT, relative to control (0 = 100) ([2]; HCT116, 2 000 b/j, 30 μM, single experiment (date), sheet E-Bp4eS): 82.3738 and 90.947 and 82.3476 and 90.2168 | MTT, relative to control (0 = 100) ([2]; HCT116, 2 000 b/j, 100 μM, průměr (mean), sheet E-Bp4eS): 59.19 | MTT, relative to control (0 = 100) ([2]; HCT116, 2 000 b/j, 100 μM, single experiment (date), sheet E-Bp4eS): 61.842 and 75.8026 and 45.1438 and 53.9757 | MTT, relative to control (0 = 100) ([2]; HCT116, 2 000 b/j, 300 μM, průměr (mean), sheet E-Bp4eS): 9.27 | MTT, relative to control (0 = 100) ([2]; HCT116, 2 000 b/j, 1000 μM, průměr (mean), sheet E-Bp4eS): 7.18 | MTT, relative to control (0 = 100) ([2]; HCT116, 2 000 b/j, 1000 μM, single experiment (date), sheet E-Bp4eS): 7.957 and 7.9705 and 6.656 and 6.131 | IC50 ([2]; HCT116, 2 000 b/j, single experiment (date), sheet E-Bp4eS): 108 µM and 85.2 µM and 99.1 µM | IC50 ([2]; Homo sapiens, HCT-116, HCT116, 2 000 b/j, průměr (mean), sheet E-Bp4eS): 95.4 µM | IC50 ([2]; Homo sapiens, HCT-116, HCT116, 2 000 b/j, single experiment (date), sheet E-Bp4eS): 89.2 µM | Calcein fluorescence ([3]; 30 sec, mean (průměr)): 0.000 | Calcein fluorescence ([3]; 30 sec, single experiments): 0.000 | Calcein fluorescence ([3]; 60 sec, mean (průměr)): 3.596 | Calcein fluorescence ([3]; 90 sec, mean (průměr)): 0.696 | Calcein fluorescence ([3]; 120 sec, mean (průměr)): 1.617 | Calcein fluorescence ([3]; 300 sec, mean (průměr)): 0.000 | Calcein fluorescence ([3]; 300 sec, single experiments): 0.000 | Calcein fluorescence ([3]; 600 sec, mean (průměr)): 0.000 | Calcein fluorescence ([3]; 600 sec, single experiments): 0.000 | Chelation efficacy: fluorescence of free calcein at t = 600 s as percentage of Bp4eT ([3]; MCF-7, mean of 6 experiments): 0.0001667% | Fluorescence of free calcein at 600 s as percentage of Bp4eT ([3]; MCF-7, single experiments): 0%
